In patent publication US8710233B2 (Gruenenthal GmbH, priority 2005, dated 2014):

Legend:
VR1/TRPV1 receptor = VR1/TRPV1 receptor (Homo sapiens, UniProt Q8NER1); assay: IC50 (human) after pH stimulus; assay type: cell-based; conditions: for IC50: table 4; for inhibition at 1 µM / inhibition in percent, IC50 (human) after pH stimulus: ne = no effect, @ 1 μM
vanilloid receptor (VR1) = target: T1, vanilloid receptor (VR1) (Homo sapiens, UniProt Q8NER1); assay: FLIPR Ca2+ influx assay on CHO K1 cells transfected with the VR1 gene (pharmacological method II); assay type: cell-based; conditions: table 4; capsaicin; read-out: Ki (human) Cap.
T1 construct: expressed in transfected cells; host or cells: CHO K1 cells (ECACC), stably transfected
T1 sequence (Q8NER1 whole entry): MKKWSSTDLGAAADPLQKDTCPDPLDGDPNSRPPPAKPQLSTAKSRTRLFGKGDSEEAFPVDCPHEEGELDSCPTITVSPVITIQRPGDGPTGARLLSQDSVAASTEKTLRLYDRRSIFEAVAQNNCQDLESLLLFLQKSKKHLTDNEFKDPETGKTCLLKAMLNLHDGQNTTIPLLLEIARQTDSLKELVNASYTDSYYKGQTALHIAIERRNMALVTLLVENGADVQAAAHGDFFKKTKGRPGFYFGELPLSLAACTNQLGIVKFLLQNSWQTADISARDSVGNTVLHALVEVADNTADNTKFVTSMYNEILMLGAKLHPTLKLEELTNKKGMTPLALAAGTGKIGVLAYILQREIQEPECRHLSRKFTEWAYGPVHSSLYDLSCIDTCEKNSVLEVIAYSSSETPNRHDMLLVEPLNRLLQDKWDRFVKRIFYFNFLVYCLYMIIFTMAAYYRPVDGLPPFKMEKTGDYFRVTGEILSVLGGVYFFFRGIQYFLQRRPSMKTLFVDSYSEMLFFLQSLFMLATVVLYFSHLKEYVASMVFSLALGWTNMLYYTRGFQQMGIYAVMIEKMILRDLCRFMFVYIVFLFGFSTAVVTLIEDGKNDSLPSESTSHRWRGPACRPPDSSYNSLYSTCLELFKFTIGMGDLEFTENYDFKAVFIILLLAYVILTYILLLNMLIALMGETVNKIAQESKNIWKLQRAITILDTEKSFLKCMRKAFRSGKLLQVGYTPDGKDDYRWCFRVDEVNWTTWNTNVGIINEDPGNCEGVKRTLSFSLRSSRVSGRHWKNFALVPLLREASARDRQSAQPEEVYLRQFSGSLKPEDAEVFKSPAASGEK
From the text: In this FLIPR assay, the influx of Ca^2+ is quantified with the assistance of a Ca^2+-sensitive dye (type Fluo-4, Molecular Probes Europe BV, Leiden, Netherlands) in a Fluorescent Imaging Plate Reader (FLIPR, Molecular Devices, Sunnyvale, USA) as described below.
II. Functional Investigations on the Vanilloid Receptor (VR1)
The agonistic or antagonistic action of the substances to be investigated on the vanilloid receptor (VR1) may also be determined with the following assay. According to this assay, the influx of Ca^2+ through the channel is quantified with the assistance of a Ca^2+-sensitive dye (type Fluo-4, Molecular Probes Europe BV, Leiden, Netherlands) in a Fluorescent Imaging Plate Reader (FLIPR, Molecular Devices, Sunnyvale, USA).
Chinese hamster ovary cells (CHO K1 cells, European Collection of Cell Cultures (ECACC), Great Britain) are stably transfected with the VR1 gene. For functional investigations, these cells are plated out onto poly-D-lysine-coated, black 96 well plates with a clear bottom (BD Biosciences, Heidelberg, Germany) at a density of 25,000 cells/well. The cells are incubated overnight at 37° C. and 5% CO2 in a culture medium (Ham's Nutrient Mixture F12, 10 vol. % FCS (foetal calf serum), 18 μg/mL L-proline). On the following day, the cells are incubated with Fluo-4 (Fluo-4 2 μM, Pluronic F127 0.01 vol. %, Molecular Probes in HBSS (Hank's buffered saline solution), Gibco Invitrogen GmbH, Karlsruhe, Germany) for 30 minutes at 37° C. The plates are then washed 3 times with HBSS buffer and, after a further 15 minutes' incubation at room temperature, used for […] measurement in the FLIPR. […] Quantification proceeds by measuring the highest fluorescence intensity (FC, fluorescence counts) over time.
The FLIPR protocol comprises 2 additions of substance. The substances to be tested (10 μM) are firstly pipetted onto the cells and Ca^2+ influx is compared with the control (capsaicin 10 μM) (% activation relative to the Ca^2+ signal after addition of 10 μM of capsaicin). After 5 minutes' incubation, 100 nM of capsaicin are added and the influx of Ca^2+ is again determined.
The percentage inhibition in comparison with the maximum achievable inhibition with 10 μM capsaicin is calculated.

[1] = read-out: inhibition in percent, IC50 (human) after pH stimulus

VR1/TRPV1 receptor, sequence (Q8NER1 whole entry): as above

CC(C)COc1nc(C(C)(C)C)ccc1CNC(=O)C(C)c1ccc(NS(C)(=O)=O)c(F)c1 (stereo not shown) [Compound 353]
inhibition at 0.05 µM (VR1/TRPV1 receptor; @ 0.05 μM, read-out: inhibition in percent, IC50 (human) after pH stimulus): 18%

CCCCCCOc1nc(C(F)(F)F)ccc1CNC(=O)C(C)c1ccc(NS(C)(=O)=O)c(F)c1 (stereo not shown) [Example 376, 2-(3-fluoro-4-(methylsulfonamido)phenyl)-N-((2-(hexyloxy)-6-(trifluoromethyl)pyridin-3-yl)methyl)propanamide]
Ki (vanilloid receptor (VR1)): 0.8 nM | IC50 (VR1/TRPV1 receptor): 20 nM

CC(C(=O)NCc1ccc(C(F)(F)F)nc1N1CCN(C2CCCCC2)CC1)c1ccc(NS(C)(=O)=O)c(F)c1 (stereo not shown) [Compound 260]
inhibition at 0.1 µM (VR1/TRPV1 receptor; [1]): 8.5%

CC(C(=O)NCc1ccc(C(F)(F)F)nc1SC1CCCCC1)c1ccc(NS(C)(=O)=O)c(F)c1 (stereo not shown) [Example 294, N-(2-cyclohexylsulfanyl-6-trifluoromethyl-pyridin-3-ylmethyl)-2-(3-fluoro-4-methylsulfonamido-phenyl)-propionamide]
Ki (vanilloid receptor (VR1)): 1.9 nM | IC50 (VR1/TRPV1 receptor): 304 nM

CC(C(=O)NCc1ccc(C(F)(F)F)cc1-c1cccc(F)c1)c1ccc(NS(C)(=O)=O)c(F)c1 (stereo not shown) [Example 323, 2-(3-fluoro-4-methylsulfonamido-phenyl)-N-(3′-fluoro-5-trifluoromethyl-biphenyl-2-ylmethyl)-propionamide]
Ki (vanilloid receptor (VR1)): 1.9 nM | inhibition at 0.1 µM (VR1/TRPV1 receptor; [1]): 15% | inhibition at 1 µM (VR1/TRPV1 receptor; [1]): 41%

CC1CC(C)CC(Oc2nc(C(F)(F)F)ccc2CNC(=O)C(C)c2ccc(NS(C)(=O)=O)c(F)c2)C1 (stereo not shown) [Example 377, N-((2-(3,5-dimethylcyclohexyloxy)-6-(trifluoromethyl)pyridin-3-yl)methyl)-2-(3-fluoro-4-(methylsulfonamido)phenyl)propanamide]
Ki (vanilloid receptor (VR1)): 3 nM

CCCCC(CCCC)Oc1nc(C(F)(F)F)ccc1CNC(=O)C(C)c1ccc(NS(C)(=O)=O)c(F)c1 (stereo not shown) [Example 352, N-[2-(1-butyl-pentyloxy)-6-trifluoromethyl-pyridin-3-ylmethyl]-2-(3-fluoro-4-methylsulfonamido-phenyl)-propionamide]
Ki (vanilloid receptor (VR1)): 0.5 nM | inhibition at 5 µM (VR1/TRPV1 receptor; [1]): 34% | inhibition at 10 µM (VR1/TRPV1 receptor; @ 10 μM, read-out: inhibition in percent, IC50 (human) after pH stimulus): 61%

CC(C(=O)NCc1ccc(C(F)(F)F)nc1OCC1CCN(C(=O)OC(C)(C)C)CC1)c1ccc(NS(C)(=O)=O)c(F)c1 (stereo not shown) [Example 327, 4-(3-{[2-(3-fluoro-4-methylsulfonamido-phenyl)-propionylamino]-methyl}-6-trifluoromethyl-pyridin-2-yloxymethyl)-piperidine-1-carbonic acid tert-butyl ester]
Ki (vanilloid receptor (VR1)): 3.4 nM | IC50 (VR1/TRPV1 receptor): 342 nM

Cc1cc(C(F)(F)F)nc(OC2CCCC2)c1CNC(=O)C(C)c1ccc(NS(C)(=O)=O)c(F)c1 (stereo not shown) [Example 349]
Ki (vanilloid receptor (VR1)): 44 nM | inhibition in percent, IC50 (human) after pH stimulus (VR1/TRPV1 receptor): ne @ 1 μM

CCCCCCOc1nc(C(C)(C)C)ccc1CNC(=O)C(C)c1ccc(NS(C)(=O)=O)c(F)c1 (stereo not shown) [Compound 236]
inhibition at 0.1 µM (VR1/TRPV1 receptor; [1]): 2%

Cc1cc(C(C)C(=O)NCc2ccc(C(F)(F)F)nc2N2CCC(C)CC2)ccc1NS(C)(=O)=O (stereo not shown) [Compound 196]
inhibition at 0.01 µM (VR1/TRPV1 receptor; [1]): 6% | inhibition at 0.1 µM (VR1/TRPV1 receptor; [1]): 48%

CCOCCCOc1nc(C(F)(F)F)ccc1CNC(=O)C(C)c1ccc(NS(C)(=O)=O)c(F)c1 (stereo not shown) [Example 361, N-[2-(3-ethoxy-propoxy)-6-trifluoromethyl-pyridin-3-ylmethyl]-2-(3-fluoro-4-methylsulfonamido-phenyl)-propionamide]
Ki (vanilloid receptor (VR1)): 9.7 nM | IC50 (VR1/TRPV1 receptor): 462 nM

CC(C(=O)NCc1ccc(C(F)(F)F)nc1CCC(C)(C)C)c1ccc(NS(C)(=O)=O)c(F)c1 (stereo not shown) [Compound 263]
inhibition at 0.01 µM (VR1/TRPV1 receptor; [1]): 4% | inhibition at 0.1 µM (VR1/TRPV1 receptor; [1]): 52%

CCCCC(CCCC)Oc1nc(C(F)(F)F)ccc1CNC(=O)C(C)c1ccc(NS(C)(=O)=O)c(F)c1 (stereo not shown) [Compound 352]
inhibition at 1 µM (VR1/TRPV1 receptor; [1]): 27%

CCCCCOc1nc(C(F)(F)F)ccc1CNC(=O)C(C)c1ccc(NS(C)(=O)=O)c(F)c1 (stereo not shown) [Example 375, 2-(3-fluoro-4-(methylsulfonamido)phenyl)-N-((2-(pentyloxy)-6-(trifluoromethyl)pyridin-3-yl)methyl)propanamide]
IC50 (VR1/TRPV1 receptor): 30 nM

CC(C(=O)NCc1ccc(C(F)(F)F)nc1Nc1ccc(F)cc1)c1ccc(NS(C)(=O)=O)c(F)c1 (stereo not shown) [Compound 112]
inhibition at 1 µM (VR1/TRPV1 receptor; [1]): 26%

CC(C(=O)NCc1ccc(C(F)(F)F)cc1-c1ccc(F)c(Cl)c1)c1ccc(NS(C)(=O)=O)c(F)c1 (stereo not shown) [Example 324, N-(3′-chloro-4′-fluoro-5-trifluoromethyl-biphenyl-2-ylmethyl)-2-(3-fluoro-4-methylsulfonamido-phenyl)-propionamide]
IC50 (VR1/TRPV1 receptor): 33 nM

CCOC(=O)c1cc(CNC(=O)C(C)c2ccc(NS(C)(=O)=O)c(F)c2)c(N2CCC(C)CC2)cc1C(F)(F)F (stereo not shown) [Example 351, 5-{[2-(3-fluoro-4-methylsulfonamido-phenyl)-propionylamino]-methyl}-4-(4-methyl-piperidin-1-yl)-2-trifluoromethyl-benzoic acid ethyl ester]
Ki (vanilloid receptor (VR1)): 44 nM

CC1CCCN(c2nc(C(F)(F)F)ccc2CNC(=O)C(C)c2ccc(NS(C)(=O)=O)c(F)c2)C1 (stereo not shown) [Compound 282]
inhibition at 0.01 µM (VR1/TRPV1 receptor; [1]): 12% | inhibition at 0.1 µM (VR1/TRPV1 receptor; [1]): 55%

CC(C)OC1CCN(c2nc(C(F)(F)F)ccc2CNC(=O)C(C)c2ccc(NS(C)(=O)=O)c(F)c2)CC1 (stereo not shown) [Compound 162]
inhibition at 0.1 µM (VR1/TRPV1 receptor; [1]): 31%

CCCCCCOc1nc(C(F)(F)F)ccc1CNC(=O)C(C)c1ccc(NS(C)(=O)=O)c(C)c1 (stereo not shown) [Compound 257]
inhibition at 0.01 µM (VR1/TRPV1 receptor; [1]): 11% | inhibition at 0.1 µM (VR1/TRPV1 receptor; [1]): 63%

CC(C(=O)NCc1ccc(C(F)(F)F)cc1N1CCN(c2ccc(C(F)(F)F)cc2)CC1)c1ccc(NS(C)(=O)=O)c(F)c1 (stereo not shown) [Compound 248]
inhibition at 1 µM (VR1/TRPV1 receptor; [1]): 63%

CC(C(=O)NCc1ccc(C(F)(F)F)nc1N1CCC(CN(C)C)(c2ccccc2)CC1)c1ccc(NS(C)(=O)=O)c(F)c1 (stereo not shown) [Compound 259]
inhibition at 0.1 µM (VR1/TRPV1 receptor; [1]): 0%

CCCN(CCC)c1nc(C(F)(F)F)ccc1CNC(=O)C(C)c1ccc(NS(C)(=O)=O)c(C)c1 (stereo not shown) [Compound 331]
inhibition at 0.1 µM (VR1/TRPV1 receptor; [1]): 18% | inhibition at 1 µM (VR1/TRPV1 receptor; [1]): 26% | inhibition at 5 µM (VR1/TRPV1 receptor; [1]): 22%

CC(C(=O)NCc1ccc(C(F)(F)F)nc1N1CCN(C)CC1)c1ccc(NS(C)(=O)=O)c(F)c1 (stereo not shown) [Compound 134]
inhibition at 1 µM (VR1/TRPV1 receptor; [1]): 15%

CC(C(=O)NCc1ccc(C(F)(F)F)cc1OC1CCCCC1)c1ccc(NS(C)(=O)=O)c(F)c1 (stereo not shown) [Compound 238]
inhibition at 0.01 µM (VR1/TRPV1 receptor; [1]): 3%

COc1ccc(-c2nc(C(F)(F)F)ccc2CNC(=O)C(C)c2ccc(NS(C)(=O)=O)c(F)c2)cc1OC (stereo not shown) [Compound 326]
inhibition at 1 µM (VR1/TRPV1 receptor; [1]): 8% | inhibition at 5 µM (VR1/TRPV1 receptor; [1]): 32%

CCC(C(=O)NCc1ccc(C(F)(F)F)nc1N1CCC(C)CC1)c1ccc(NS(C)(=O)=O)c(F)c1 (stereo not shown) [Example 347, 2-(3-fluoro-4-methylsulfonamido-phenyl)-N-(4-methyl-6′-trifluoromethyl-3,4,5,6-tetrahydro-2H-[1,2′]bipyridinyl-3′-ylmethyl)-butyramide]
Ki (vanilloid receptor (VR1)): 1.6 nM

CC(C(=O)NCc1ccc(C(F)(F)F)cc1N1CCN(C2CCCCC2)CC1)c1ccc(NS(C)(=O)=O)c(F)c1 (stereo not shown) [Compound 319]
inhibition at 1 µM (VR1/TRPV1 receptor; [1]): 4%

CC(C(=O)NCc1ccc(C(F)(F)F)nc1N1CCCCC1C)c1ccc(NS(C)(=O)=O)c(F)c1 (stereo not shown) [Compound 283]
inhibition at 0.01 µM (VR1/TRPV1 receptor; [1]): 11% | inhibition at 0.1 µM (VR1/TRPV1 receptor; [1]): 43%

CC(C(=O)NCc1c(CO)cc(C(C)(C)C)nc1OC1CCCC1)c1ccc(NS(C)(=O)=O)c(F)c1 (stereo not shown) [Example 261, N-(6-tert-butyl-2-cyclopentyloxy-4-hydroxymethyl-pyridin-3-ylmethyl)-2-(3-fluoro-4-methylsulfonamido-phenyl)-propionamide]
inhibition in percent, IC50 (human) after pH stimulus (VR1/TRPV1 receptor): ne @ 1 μM

CCCCOc1nc(C(F)(F)F)ccc1CNC(=O)C(C)c1ccc(NS(C)(=O)=O)c(C)c1 (stereo not shown) [Compound 256]
inhibition at 0.01 µM (VR1/TRPV1 receptor; [1]): 15% | inhibition at 0.1 µM (VR1/TRPV1 receptor; [1]): 43%

CC(C(=O)NCc1ccc(C(F)(F)F)cc1-c1cccc(Cl)c1)c1ccc(NS(C)(=O)=O)c(F)c1 (stereo not shown) [Example 322, N-(3′-chloro-5-trifluoromethyl-biphenyl-2-ylmethyl)-2-(3-fluoro-4 methylsulfonamido-phenyl)-propionamide]
inhibition at 0.1 µM (VR1/TRPV1 receptor; [1]): 25% | inhibition at 1 µM (VR1/TRPV1 receptor; [1]): 54%
